Measured values: ChEMBL document CHEMBL3885861, “Open TG-GATES”

Species: Rattus norvegicus
Assay: Open TG-GATES - Regimen: Single
Format: toxicity, organism-based, Sprague-Dawley
Design: regimen Single, gender Male, age 6 weeks
Settings: in vivo, po, route gavage; for TC / TP / gamma-GTP / ALP / ALT / AST / BUN / CRE / DBIL / GLC / IP / K / LDH / RALB / TBIL / PL: tissue Plasma; for APTT / Bas / Eos / Fbg / Ht / Lym / MCHC / MCV / Mono / PT / Plat / RBC / Ret / WBC: tissue Blood; for KIDNEY_L / KIDNEY_R / KIDNEY_TOTAL: tissue Kidney; for LIVER: tissue Liver
[1] = 0 mg/kg, 24 h, dose level Control

## CN(C)CCCN1c2ccccc2CCc2ccccc21 [IMIPRAMINE]
[1]
  TC: 76 mg/dL
  TP: 5.6 g/dL
  gamma-GTP: 1 IU/L
10 mg/kg, 3 h, dose level Low
  TERMINAL_BW: 203.3 g
  APTT: 16.8 s
  Bas: 0%
  Eos: 1.2%
  Fbg: 264.4 mg/dL
  Ht: 42.9%
  Lym: 78.6%
  MCHC: 31.9%
  MCV: 66.6 fL
  Mono: 2.8%
  PT: 16 s
  Plat: 108.8 x10_4/uL
  RBC: 644 x10_4/ul
  Ret: 8.6%
  WBC: 74.5 x10_2/uL
  KIDNEY_L: 0.9 g
  KIDNEY_R: 0.9 g
  KIDNEY_TOTAL: 1.8 g
  LIVER: 9.1 g
  ALP: 1700 IU/L
  ALT: 46.6 IU/L
  AST: 76.8 IU/L
  BUN: 8.6 mg/dL
  CRE: 0.1 mg/dL
  DBIL: 0.01 mg/dL
  GLC: 187.4 mg/dL
  IP: 10 mg/dL
  K: 4.3 meq/L
  LDH: 73 IU/L
  RALB: 2.6 g/dL
  TBIL: 0.066 mg/dL
  TC: 80.4 mg/dL
  TP: 5.5 g/dL
  gamma-GTP: 1.2 IU/L
10 mg/kg, 6 h, dose level Low
  TERMINAL_BW: 199.7 g
  APTT: 16 s
  Bas: 0.2%
  Eos: 0.8%
  Fbg: 276.2 mg/dL
  Ht: 42.9%
  Lym: 75%
  MCHC: 32.3%
  MCV: 66.5 fL
  Mono: 2.2%
  PT: 15.8 s
  Plat: 108.4 x10_4/uL
  RBC: 645.6 x10_4/ul
  Ret: 8.3%
  WBC: 92.4 x10_2/uL
  KIDNEY_L: 0.9 g
  KIDNEY_R: 0.9 g
  KIDNEY_TOTAL: 1.9 g
  ALP: 1517 IU/L
  ALT: 54.4 IU/L
  AST: 79.4 IU/L
  BUN: 8.2 mg/dL
  CRE: 0.2 mg/dL
  GLC: 183 mg/dL
  IP: 9.6 mg/dL
  K: 4.2 meq/L
  LDH: 139.2 IU/L
  PL: 137.6 mg/dL
  RALB: 2.5 g/dL
  TBIL: 0.064 mg/dL
  TC: 74.8 mg/dL
  TP: 5.3 g/dL
  gamma-GTP: 1 IU/L
10 mg/kg, 9 h, dose level Low
  TERMINAL_BW: 198.9 g
  APTT: 16.4 s
  Bas: 0.2%
  Eos: 1%
  Fbg: 294.4 mg/dL
  Ht: 42.3%
  Lym: 75.6%
  MCHC: 32.5%
  MCV: 64.4 fL
  Mono: 2.2%
  PT: 15.9 s
  Plat: 114.9 x10_4/uL
  RBC: 658 x10_4/ul
  Ret: 7.7%
  WBC: 71.4 x10_2/uL
  KIDNEY_L: 0.9 g
  KIDNEY_R: 0.9 g
  KIDNEY_TOTAL: 1.8 g
  LIVER: 8.2 g
  ALP: 1463.6 IU/L
  ALT: 37.6 IU/L
  AST: 66.2 IU/L
  BUN: 7.4 mg/dL
  CRE: 0.1 mg/dL
  DBIL: 0.01 mg/dL
  GLC: 181 mg/dL
  IP: 9.9 mg/dL
  K: 4.1 meq/L
  LDH: 67.6 IU/L
  PL: 137.4 mg/dL
  RALB: 2.6 g/dL
  TBIL: 0.066 mg/dL
  TC: 78.4 mg/dL
  TP: 5.5 g/dL
  gamma-GTP: 1.2 IU/L
10 mg/kg, 24 h, dose level Low
  TERMINAL_BW: 217.3 g
  APTT: 16.2 s
  Bas: 0%
  Eos: 0.4%
  Fbg: 254 mg/dL
  Ht: 40.6%
  Lym: 81%
  MCHC: 32.3%
  MCV: 65.1 fL
  Mono: 2.4%
  PT: 16.2 s
  Plat: 104.4 x10_4/uL
  RBC: 625.4 x10_4/ul
  Ret: 7.4%
  WBC: 76.3 x10_2/uL
  KIDNEY_L: 0.9 g
  KIDNEY_R: 0.9 g
  KIDNEY_TOTAL: 1.8 g
  LIVER: 9.7 g
  ALP: 1443 IU/L
  ALT: 48.6 IU/L
  AST: 80.8 IU/L
  BUN: 15.6 mg/dL
  CRE: 0.2 mg/dL
  GLC: 187.2 mg/dL
  IP: 7.6 mg/dL
  K: 4 meq/L
  LDH: 73.2 IU/L
  RALB: 2.5 g/dL
  TBIL: 0.058 mg/dL
  TC: 78 mg/dL
